The values below come from patent US20230310428A1, “EGFR INHIBITOR AND PREPARATION METHOD AND USE THEREOF” (HONGYUN BIOTECH CO., LTD., priority 2020, published 2023).

Assay in all cases: Growth inhibitory activity of compounds on BaF3 cell lines stably transfected with kinase (MTS, 48 h)
Common to all, as to assay type: cell-based

Experiment [1] deals with T1, various mutants of kinase EGFR (BaF3 cell lines stably transfected with kinase) (Homo sapiens, UniProt P00533, T790M, form not given).
T1 construct: other: BaF3 cells stably transfected with EGFR Δ19Del/T790M; MTS, 48 h; other: BaF3 cell line stably transfected with EGFR Δ19Del/T790M; MTS, 48
T1 sequence (P00533 with tags, fused parts or gaps DEL746-750/T790M, form open): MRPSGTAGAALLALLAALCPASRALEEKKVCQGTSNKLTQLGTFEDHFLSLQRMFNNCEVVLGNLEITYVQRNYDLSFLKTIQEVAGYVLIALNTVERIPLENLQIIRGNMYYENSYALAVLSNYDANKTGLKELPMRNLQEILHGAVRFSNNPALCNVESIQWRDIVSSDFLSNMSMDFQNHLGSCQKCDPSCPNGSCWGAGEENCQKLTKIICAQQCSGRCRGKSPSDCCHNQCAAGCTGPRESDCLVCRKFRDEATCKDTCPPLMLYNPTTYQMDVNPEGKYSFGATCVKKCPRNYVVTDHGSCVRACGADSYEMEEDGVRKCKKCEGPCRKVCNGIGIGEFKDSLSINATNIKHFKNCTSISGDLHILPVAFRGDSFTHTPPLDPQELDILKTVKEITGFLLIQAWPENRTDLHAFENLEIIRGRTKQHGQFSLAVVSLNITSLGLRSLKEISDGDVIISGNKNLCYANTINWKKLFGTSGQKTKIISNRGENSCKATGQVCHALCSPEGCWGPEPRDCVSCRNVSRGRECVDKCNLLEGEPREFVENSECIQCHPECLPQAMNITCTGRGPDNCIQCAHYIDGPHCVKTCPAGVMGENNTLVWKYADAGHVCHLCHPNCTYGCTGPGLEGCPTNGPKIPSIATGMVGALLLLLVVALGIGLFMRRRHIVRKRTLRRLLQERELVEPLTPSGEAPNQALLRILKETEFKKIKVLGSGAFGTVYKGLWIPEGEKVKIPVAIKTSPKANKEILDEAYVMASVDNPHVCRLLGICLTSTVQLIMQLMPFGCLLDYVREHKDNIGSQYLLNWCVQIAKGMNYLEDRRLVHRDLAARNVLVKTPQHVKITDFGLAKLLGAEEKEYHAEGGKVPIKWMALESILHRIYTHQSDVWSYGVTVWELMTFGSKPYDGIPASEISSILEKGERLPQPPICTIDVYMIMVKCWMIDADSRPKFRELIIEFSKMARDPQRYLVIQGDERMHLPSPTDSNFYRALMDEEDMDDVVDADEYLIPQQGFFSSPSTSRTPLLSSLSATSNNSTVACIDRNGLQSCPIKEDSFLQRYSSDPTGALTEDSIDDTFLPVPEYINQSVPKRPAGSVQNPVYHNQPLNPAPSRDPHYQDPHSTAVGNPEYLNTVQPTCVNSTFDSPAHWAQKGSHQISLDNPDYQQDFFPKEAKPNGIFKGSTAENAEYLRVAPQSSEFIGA
Conditions: BaF3 cells stably transfected with EGFR Δ19Del/T790M, read-out: IC50, growth inhibition, Δ19Del/T790M. Put shortly: (§1)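 Transfected cells received compound (max 10 µM, 8 concentrations) for 48 h; MTS readout at 490 nm yielded IC50.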

In experiment [2] the target is T2, various mutants of kinase EGFR (BaF3 cell lines stably transfected with kinase) (Homo sapiens, UniProt P00533, C797S/L858R/T790M).
T2 construct: expressed in transfected cells; host or cells: BaF3
As to conditions: BaF3 cells stably transfected with EGFR L858R/T790M/C797S, read-out: IC50, growth inhibition, L858R/T790M/C797S. Put shortly: as §1

The target of experiment [3] is T3, various mutants of kinase EGFR (BaF3 cell lines stably transfected with kinase) (Homo sapiens, UniProt P00533).
T3 construct: other: BaF3 cells stably transfected with EGFR Δ19Del; MTS, 48 h; other: BaF3 cell line stably transfected with EGFR Δ19Del
As to conditions: BaF3 cells stably transfected with EGFR Δ19Del, read-out: IC50, growth inhibition, Δ19Del. Put shortly:
as §1

Experiment [4] addresses T4, various mutants of kinase EGFR (BaF3 cell lines stably transfected with kinase) (Homo sapiens, UniProt P00533, L858R).
T4 construct: expressed in transfected cells; host or cells: BaF3
As to conditions: BaF3 cells stably transfected with EGFR L858R, read-out: IC50, growth inhibition, L858R. Put shortly:
as §1

Experiment [5] deals with T5, various mutants of kinase EGFR (BaF3 cell lines stably transfected with kinase) (Homo sapiens, UniProt P00533, T790M/C797S, form not given).
T5 construct: other: BaF3 cells stably transfected with EGFR Δ19Del/T790M/C797S; MTS, 48; other: BaF3 cell line stably transfected with EGFR Δ19Del/T790M/C7
T5 sequence (P00533 with tags, fused parts or gaps DEL746-750/T790M/C797S, form open): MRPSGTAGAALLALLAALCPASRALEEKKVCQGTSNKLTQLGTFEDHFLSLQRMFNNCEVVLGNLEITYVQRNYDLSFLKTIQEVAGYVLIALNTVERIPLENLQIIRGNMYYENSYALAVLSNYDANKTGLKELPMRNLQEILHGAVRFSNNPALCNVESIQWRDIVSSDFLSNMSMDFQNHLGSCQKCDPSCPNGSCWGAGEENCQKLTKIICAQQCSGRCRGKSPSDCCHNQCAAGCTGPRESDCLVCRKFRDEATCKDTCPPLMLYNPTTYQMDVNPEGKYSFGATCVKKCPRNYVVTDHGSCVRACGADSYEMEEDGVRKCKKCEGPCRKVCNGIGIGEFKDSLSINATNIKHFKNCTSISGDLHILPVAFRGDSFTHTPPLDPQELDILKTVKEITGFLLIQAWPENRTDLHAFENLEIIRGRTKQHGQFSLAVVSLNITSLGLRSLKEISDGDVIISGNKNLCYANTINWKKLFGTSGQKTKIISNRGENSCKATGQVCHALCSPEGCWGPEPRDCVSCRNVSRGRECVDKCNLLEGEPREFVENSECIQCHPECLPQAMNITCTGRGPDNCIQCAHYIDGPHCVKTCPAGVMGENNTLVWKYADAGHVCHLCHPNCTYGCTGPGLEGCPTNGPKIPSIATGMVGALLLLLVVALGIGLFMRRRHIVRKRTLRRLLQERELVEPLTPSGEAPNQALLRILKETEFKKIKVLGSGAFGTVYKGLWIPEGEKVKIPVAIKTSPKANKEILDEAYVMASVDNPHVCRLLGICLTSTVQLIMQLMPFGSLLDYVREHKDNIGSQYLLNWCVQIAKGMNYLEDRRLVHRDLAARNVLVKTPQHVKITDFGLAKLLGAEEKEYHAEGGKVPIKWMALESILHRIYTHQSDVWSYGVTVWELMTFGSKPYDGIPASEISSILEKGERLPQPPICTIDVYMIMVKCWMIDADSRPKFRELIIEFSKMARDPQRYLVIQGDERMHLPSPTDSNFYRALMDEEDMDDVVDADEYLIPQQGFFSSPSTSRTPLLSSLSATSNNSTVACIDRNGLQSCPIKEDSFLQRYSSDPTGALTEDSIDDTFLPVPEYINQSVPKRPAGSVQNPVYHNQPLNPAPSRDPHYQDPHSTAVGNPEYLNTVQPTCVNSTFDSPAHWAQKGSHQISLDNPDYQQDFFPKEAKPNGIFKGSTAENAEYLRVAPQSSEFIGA
As to conditions: BaF3 cells stably transfected with EGFR Δ19Del/T790M/C797S, read-out: IC50, growth inhibition, Δ19Del/T790M/C797S. Put shortly:
as §1

For experiment [6], the target named is T6, various mutants of kinase EGFR (BaF3 cell lines stably transfected with kinase) (Homo sapiens, UniProt P00533, L858R/T790M).
T6 construct: expressed in transfected cells; host or cells: BaF3
T6 sequence (P00533 25-1210 T790M/L858R): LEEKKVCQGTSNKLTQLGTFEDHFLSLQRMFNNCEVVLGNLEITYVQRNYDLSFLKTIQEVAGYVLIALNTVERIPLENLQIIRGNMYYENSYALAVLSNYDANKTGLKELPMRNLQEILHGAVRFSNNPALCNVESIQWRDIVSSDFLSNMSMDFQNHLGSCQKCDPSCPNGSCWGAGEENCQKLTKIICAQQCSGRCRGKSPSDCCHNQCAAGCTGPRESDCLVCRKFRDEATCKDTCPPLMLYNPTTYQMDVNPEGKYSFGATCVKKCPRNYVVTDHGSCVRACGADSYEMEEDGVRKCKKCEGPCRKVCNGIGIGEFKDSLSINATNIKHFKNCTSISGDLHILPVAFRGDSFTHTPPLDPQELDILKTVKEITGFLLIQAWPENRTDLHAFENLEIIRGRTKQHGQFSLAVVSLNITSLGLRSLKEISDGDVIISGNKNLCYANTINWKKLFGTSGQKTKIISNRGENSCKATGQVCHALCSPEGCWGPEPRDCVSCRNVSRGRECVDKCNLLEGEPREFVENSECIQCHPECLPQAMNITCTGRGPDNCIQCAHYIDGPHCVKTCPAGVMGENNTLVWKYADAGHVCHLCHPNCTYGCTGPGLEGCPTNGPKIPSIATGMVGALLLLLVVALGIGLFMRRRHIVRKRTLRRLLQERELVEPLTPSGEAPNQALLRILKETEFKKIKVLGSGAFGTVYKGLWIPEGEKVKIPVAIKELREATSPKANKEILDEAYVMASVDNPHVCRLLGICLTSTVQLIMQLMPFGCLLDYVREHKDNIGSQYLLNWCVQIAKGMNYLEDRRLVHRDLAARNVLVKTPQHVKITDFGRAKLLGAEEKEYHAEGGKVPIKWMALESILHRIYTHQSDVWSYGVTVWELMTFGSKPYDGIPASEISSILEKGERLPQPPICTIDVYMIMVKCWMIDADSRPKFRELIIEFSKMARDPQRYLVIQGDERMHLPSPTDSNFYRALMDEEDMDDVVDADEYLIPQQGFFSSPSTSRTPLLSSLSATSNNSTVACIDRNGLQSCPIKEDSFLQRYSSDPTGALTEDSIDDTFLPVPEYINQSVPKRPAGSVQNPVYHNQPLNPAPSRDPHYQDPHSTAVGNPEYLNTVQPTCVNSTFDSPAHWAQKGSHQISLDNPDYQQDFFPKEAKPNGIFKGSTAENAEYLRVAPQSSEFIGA
Conditions: BaF3 cells stably transfected with EGFR L858R/T790M, read-out: IC50, growth inhibition, L858R/T790M. Put shortly: as §1

T4 sequence (P00533 25-1210 L858R): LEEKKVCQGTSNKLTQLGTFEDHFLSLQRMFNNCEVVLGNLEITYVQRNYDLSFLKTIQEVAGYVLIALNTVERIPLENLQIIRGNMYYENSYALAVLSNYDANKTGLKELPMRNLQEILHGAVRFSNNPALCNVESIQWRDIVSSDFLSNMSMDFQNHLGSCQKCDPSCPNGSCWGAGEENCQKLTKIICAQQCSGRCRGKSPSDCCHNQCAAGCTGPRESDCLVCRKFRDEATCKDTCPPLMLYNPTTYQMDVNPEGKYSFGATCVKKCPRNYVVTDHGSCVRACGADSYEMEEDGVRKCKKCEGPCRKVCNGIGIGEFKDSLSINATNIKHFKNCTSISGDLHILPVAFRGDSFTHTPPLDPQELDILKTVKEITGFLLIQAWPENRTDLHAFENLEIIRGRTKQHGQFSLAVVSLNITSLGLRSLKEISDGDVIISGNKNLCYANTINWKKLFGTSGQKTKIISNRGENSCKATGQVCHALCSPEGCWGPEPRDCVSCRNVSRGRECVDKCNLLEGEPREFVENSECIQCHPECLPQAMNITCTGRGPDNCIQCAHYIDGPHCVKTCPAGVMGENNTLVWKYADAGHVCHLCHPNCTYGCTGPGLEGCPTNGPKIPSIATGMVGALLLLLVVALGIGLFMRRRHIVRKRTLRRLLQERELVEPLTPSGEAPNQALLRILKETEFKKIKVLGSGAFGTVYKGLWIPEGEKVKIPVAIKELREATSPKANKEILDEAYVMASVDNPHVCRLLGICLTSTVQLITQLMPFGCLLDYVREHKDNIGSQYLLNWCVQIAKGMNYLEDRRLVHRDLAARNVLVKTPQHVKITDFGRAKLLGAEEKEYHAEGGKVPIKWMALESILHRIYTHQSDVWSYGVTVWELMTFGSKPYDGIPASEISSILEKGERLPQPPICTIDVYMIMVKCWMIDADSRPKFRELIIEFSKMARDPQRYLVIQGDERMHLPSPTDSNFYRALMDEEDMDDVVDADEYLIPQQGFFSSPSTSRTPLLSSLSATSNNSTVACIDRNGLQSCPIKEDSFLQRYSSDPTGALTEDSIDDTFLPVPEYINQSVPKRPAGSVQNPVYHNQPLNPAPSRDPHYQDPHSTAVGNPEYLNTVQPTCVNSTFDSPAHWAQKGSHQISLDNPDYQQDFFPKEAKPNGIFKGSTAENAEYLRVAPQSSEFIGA

As to `COc1cc(N2CCC(N(C)C)C2)c(C)cc1Nc1ncc([N+](=O)[O-])c(Nc2ccc3nccnc3c2N(C)S(C)(=O)=O)n1` (stereo not drawn) [Compound I-195], the IC50 in experiment [1] is 50 to 500 nM; in experiment [2], 50 to 500 nM; in experiment [3], 50 to 500 nM; in experiment [4], 50 to 500 nM; in experiment [5], not above 50 nM; in experiment [6], 50 to 500 nM.

With `CCc1cc(Nc2ncc([N+](=O)[O-])c(Nc3ccc4nccnc4c3N(C)S(C)(=O)=O)n2)c(OC)cc1N1CCC(N(C)C)C1` (stereo not drawn) [Compound I-196], the IC50 in experiment [1] is 50 to 500 nM; in experiment [2] it was 50 to 500 nM; in experiment [3], 50 to 500 nM; in experiment [4], 50 to 500 nM; in experiment [5], not above 50 nM; in experiment [6] it was 50 to 500 nM.

As for `COc1nc(N2CCC(N3CCN(C)CC3)CC2)ccc1Nc1ncc(C(F)(F)F)c(Nc2ccc3nccnc3c2N(C)S(C)(=O)=O)n1` [Compound I-197], the IC50 is 50 to 500 nM in experiment [1]; 50 to 500 nM in experiment [2]; 50 to 500 nM in experiment [3]; 50 to 500 nM in experiment [4]; not above 50 nM in experiment [5]; 50 to 500 nM in experiment [6].

With `CCc1cc(Nc2ncc(C(F)(F)F)c(Nc3ccc4nccnc4c3N(C)S(C)(=O)=O)n2)c(OC)nc1N1CCC(N2CCN(C)CC2)CC1` [Compound I-199], the IC50 in experiment [1] is not above 50 nM; in experiment [2] it was not above 50 nM; in experiment [3] it was 50 to 500 nM; in experiment [4] it was not above 50 nM; in experiment [5], not above 50 nM; in experiment [6], not above 50 nM.

Consider `CN1CCN(C2CCN(c3ccc(Nc4ncc(C(F)(F)F)c(Nc5ccc6nccnc6c5N(C)S(C)(=O)=O)n4)c(OC(F)(F)F)c3)CC2)CC1` [Compound I-200], for which the IC50 in experiment [1], in experiment [2], in experiment [3], in experiment [4], in experiment [5] and in experiment [6] was 50 to 500 nM each time.

In the case of `CCc1cc(Nc2ncc(C(F)(F)F)c(Nc3ccc4nccnc4c3N(C)S(C)(=O)=O)n2)c(OC(F)(F)F)cc1N1CCC(N2CCN(C)CC2)CC1` [Compound I-201], the IC50 in experiment [1] was 50 to 500 nM; in experiment [2], 50 to 500 nM; in experiment [3] it was 50 to 500 nM; in experiment [4] it was 50 to 500 nM; in experiment [5], not above 50 nM; in experiment [6], 50 to 500 nM.

On to `C=Cc1cc(Nc2ncc(C(F)(F)F)c(Nc3ccc4nccnc4c3N(C)S(C)(=O)=O)n2)c(OC(F)(F)F)cc1N1CCC(N2CCN(C)CC2)CC1` [Compound I-202], for which the IC50 in experiment [1] was not above 50 nM; in experiment [2], 50 to 500 nM; in experiment [3] it was 50 to 500 nM; in experiment [4], 50 to 500 nM; in experiment [5], not above 50 nM; in experiment [6], not above 50 nM.

Take `COc1cc(N2CCC(N3CCN(C)CC3)CC2)c(CC2CC2)cc1Nc1ncc(C(F)(F)F)c(Nc2ccc3nccnc3c2N(C)S(C)(=O)=O)n1` [Compound I-203]: the IC50 in experiment [1] is not above 50 nM; in experiment [2] it was 50 to 500 nM; in experiment [3], 50 to 500 nM; in experiment [4] it was 50 to 500 nM; in experiment [5] it was not above 50 nM; in experiment [6], not above 50 nM.

For the compound `COc1cc(N2CCC(N3CCN(C)CC3)CC2)c(Cc2ccccc2)cc1Nc1ncc(C(F)(F)F)c(Nc2ccc3nccnc3c2N(C)S(C)(=O)=O)n1` [Compound I-204], the IC50 in experiment [1], in experiment [2], in experiment [3], in experiment [4], in experiment [5] and in experiment [6] was 500 to 2500 nM in each case.

As to `COc1cc(N2CCC(N(C)C)CC2)c(C)cc1Nc1ncc(C(F)(F)F)c(Nc2ccc3nccnc3c2N(C)S(C)(=O)=O)n1` [Compound I-205], the IC50 in experiment [1], in experiment [2], in experiment [3], in experiment [4], in experiment [5] and in experiment [6] was not above 50 nM in each case.

In the case of `CCc1cc(Nc2ncc(C(F)(F)F)c(Nc3ccc4nccnc4c3N(C)S(C)(=O)=O)n2)c(OC)cc1N1CCC(N(C)C)CC1` [Compound I-206], the IC50 in experiment [1], in experiment [2], in experiment [3], in experiment [4], in experiment [5] and in experiment [6] was not above 50 nM in each case.

As to `COc1cc(N2CCN(C)CC2)c(C)cc1Nc1ncc(C(F)(F)F)c(Nc2ccc3nccnc3c2N(C)S(C)(=O)=O)n1` [Compound I-207], the IC50 in experiment [1] was not above 50 nM; in experiment [2], not above 50 nM; in experiment [3] it was 50 to 500 nM; in experiment [4], 50 to 500 nM; in experiment [5] it was not above 50 nM; in experiment [6], not above 50 nM.

`CCc1cc(Nc2ncc(C(F)(F)F)c(Nc3ccc4nccnc4c3N(C)S(C)(=O)=O)n2)c(OC)cc1N1CCN(C)CC1` [Compound I-208]: the IC50 in experiment [1] is not above 50 nM; in experiment [2] it was not above 50 nM; in experiment [3] it was 50 to 500 nM; in experiment [4] it was not above 50 nM; in experiment [5] it was not above 50 nM; in experiment [6], not above 50 nM.

`COc1cc(N2CCC(N(C)C)C2)c(C)cc1Nc1ncc(C(F)(F)F)c(Nc2ccc3nccnc3c2N(C)S(C)(=O)=O)n1` (stereo not drawn) [Compound I-209]: the IC50 in experiment [1] is not above 50 nM; in experiment [2], not above 50 nM; in experiment [3], 50 to 500 nM; in experiment [4], not above 50 nM; in experiment [5], not above 50 nM; in experiment [6], not above 50 nM.

As to `CCc1cc(Nc2ncc(C(F)(F)F)c(Nc3ccc4nccnc4c3N(C)S(C)(=O)=O)n2)c(OC)cc1N1CCC(N(C)C)C1` (stereo not drawn) [Compound I-210], the IC50 in experiment [1], in experiment [2], in experiment [3], in experiment [4], in experiment [5] and in experiment [6] was not above 50 nM in each case.

On to `CCN(c1c(Nc2nc(Nc3ccc(N4CCC(N5CCN(C)CC5)CC4)cc3OC)ncc2Br)ccc2nccnc12)S(C)(=O)=O` [Compound I-211], for which the IC50 in experiment [1] was not above 50 nM; in experiment [2] it was not above 50 nM; in experiment [3] it was 50 to 500 nM; in experiment [4], not above 50 nM; in experiment [5], not above 50 nM; in experiment [6], not above 50 nM.

For `CCc1cc(Nc2ncc(Br)c(Nc3ccc4nccnc4c3N(CC)S(C)(=O)=O)n2)c(OC)nc1N1CCC(N2CCN(C)CC2)CC1` [Compound I-212], the IC50 in experiment [1] is not above 50 nM; in experiment [2] it was not above 50 nM; in experiment [3] it was 50 to 500 nM; in experiment [4] it was 50 to 500 nM; in experiment [5] it was not above 50 nM; in experiment [6], not above 50 nM.

For `CCN(c1c(Nc2nc(Nc3cc(CC4CC4)c(N4CCC(N5CCN(C)CC5)CC4)cc3OC)ncc2Br)ccc2nccnc12)S(C)(=O)=O` [Compound I-213], the IC50 in experiment [1], in experiment [2], in experiment [3], in experiment [4], in experiment [5] and in experiment [6] was not above 50 nM each time.

As to `CCS(=O)(=O)N(C)c1c(Nc2nc(Nc3ccc(N4CCC(N5CCN(C)CC5)CC4)cc3OC)ncc2Br)ccc2nccnc12` [Compound I-214], the IC50 in experiment [1] is not above 50 nM; in experiment [2], 50 to 500 nM; in experiment [3], 50 to 500 nM; in experiment [4] it was 50 to 500 nM; in experiment [5] it was not above 50 nM; in experiment [6] it was not above 50 nM.
